According to article PMC7340540, “Crystal structures and calorimetry reveal catalytically relevant binding mode of coproporphyrin and coproheme in coproporphyrin ferrochelatase” (The FEBS journal, 2019):

Biological target: T1, LmCpfC (Listeria monocytogenes, UniProt Q8Y565)
T1 construct: gene cpfC; full length in pET21a(+) (BamHI/XhoI), C-terminal 6xHis-tag kept, vector N-terminal residues; E. coli BL21 Gold; 37 kDa theoretical, 38 kDa by MALS; monomer
T1 sequence (Q8Y565 1-309): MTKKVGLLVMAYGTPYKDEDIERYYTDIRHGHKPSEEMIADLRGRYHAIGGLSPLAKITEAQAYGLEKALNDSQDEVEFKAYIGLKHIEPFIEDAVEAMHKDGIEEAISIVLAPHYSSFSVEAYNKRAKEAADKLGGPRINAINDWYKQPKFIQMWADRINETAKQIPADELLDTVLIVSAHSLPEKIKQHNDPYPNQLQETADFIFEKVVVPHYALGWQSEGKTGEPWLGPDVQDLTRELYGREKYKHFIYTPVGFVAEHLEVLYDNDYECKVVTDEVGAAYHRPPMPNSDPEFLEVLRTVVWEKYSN
Experiment: stopped-flow UV-vis, […] nm, KD = koff/kon
Assay type: binding

CC1=C(CCC(=O)O)c2cc3nc(cc4[nH]c(cc5[nH]c(cc1n2)c(C)c5CCC(=O)O)c(CCC(=O)O)c4C)C(CCC(=O)O)=C3C [coproporphyrin III]
Kd: 2 µM
